Assay results as given in article PMC9613470, “Diverse MarR bacterial regulators of auxin catabolism in the plant microbiome” (Nature Microbiology, 2022).
Where two headings read alike, the source gives them in different places.

Experiments:
[1] = target: Variovorax paradoxus CL14 MarR_73 (Variovorax paradoxus, UniProt C5CSP2); assay: biochemical; type: binding
Method: The coding sequence for each gene can be found in Supplementary Table 10. MarR expression plasmids were synthesized as codon-optimized genes for E. coli expression by BioBasic in the pLIC-His N-term vector (pMCSG7) and transformed into E. coli BL21 (DE3) Gold cells for expression. […] At an OD600 of 0.8, protein expression was induced by the addition of 0.1 mM IPTG and incubation continued overnight. Cells were collected by centrifugation at 4,500 × g for 20 min at 4 °C in a Sorvall (model RC-3B) swinging bucket centrifuge. Cell pellets were resuspended in buffer A (20 mM potassium phosphate, pH 7.4, 50 mM imidazole, 500 mM NaCl), DNase, lysozyme and a Roche Complete EDTA-free protease inhibitor tablet. Resuspended cells were sonicated and clarified via centrifugation at 17,000 × g for 60 min in a Sorvall (model RC-5B) swinging bucket centrifuge. The lysate was applied to a nickel-nitrilotriacetic acid HP column (GE Healthcare) on an Aktaxpress Fast Performance Liquid Chromatography (FPLC) system (Amersham Bioscience) and washed with buffer A. Protein was eluted with buffer B (20 mM potassium phosphate, pH 7.4, 500 mM imidazole, 500 mM NaCl). Fractions containing the protein of interest were combined and passed over a HiLoadTM 16/60 SuperdexTM 200 gel filtration column. Proteins were eluted in S200 buffer (20 mM HEPES, pH 7.4, 300 mM NaCl). Fractions were combined and concentrated for long-term storage at −80 °C.
All ITC measurements were performed at 25 °C using an Auto-ITC200 microcalorimeter (MicroCal/GE Healthcare). The buffer employed was 20 mM HEPES, pH 7.4, 50 mM NaCl and 0.5% dimethly sulfoxide (DMSO) for protein/ligand binding and 20 mM HEPES, pH 7.4 and 300 mM NaCl for DNA/protein binding experiments. For ligand binding experiments, the calorimetry cell (volume […]) was loaded with MarR wild-type, mutant or homologue protein at a concentration of 50 μM. The syringe was loaded with a ligand concentration of 0.5 or 2 mM. […] A typical injection protocol included a single 0.2 μl first injection followed by 20 1.5 μl injections of the syringe sample into the calorimetry cell. The spacing between injections was kept at 180 s and the reference power at 8 μcal s^−1. […] Two independent ITC measurements were performed for each condition.

[2] = tested on: Variovorax paradoxus CL14 MarR_73 S28A; assay: ITC binding of duplex oligo DNA to MarR_73 S28A
[3] = ITC, 25 °C, 20 mM HEPES pH 7.4, 50 mM NaCl, 0.5% DMSO, mean of two measurements ± standard error
[4] = ITC, 25 °C, 20 mM HEPES pH 7.4, 300 mM NaCl
[5] = ITC, 25 °C, 20 mM HEPES pH 7.4, 300 mM NaCl, duplex oligo in cell, protein in syringe

Sequence of Variovorax paradoxus CL14 MarR_73 S28A (as listed by the source, stated change not applied): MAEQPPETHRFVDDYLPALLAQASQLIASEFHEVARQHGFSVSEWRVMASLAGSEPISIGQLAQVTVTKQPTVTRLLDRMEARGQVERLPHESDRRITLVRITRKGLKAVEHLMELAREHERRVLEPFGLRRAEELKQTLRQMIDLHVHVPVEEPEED
Sequence of Variovorax paradoxus CL14 MarR_73 (C5CSP2 entry or part of it): as the sequence (as listed by the source, stated change not applied) above, with A28S counted along it

Compound	Kd [1] [µM]	N (ligand binding stoichiometry to the MarR monomer) [1, 3]	further results
O=C(O)Cc1cccc2ccccc12 [1-Naphthaleneacetic Acid]	0.33 ± 0.01	0.74 ± 0.01	–
O=C(O)COc1ccc(Cl)cc1Cl [2,4-Dichorophenoxyacetic Acid]	–	1.40 ± 0.01	Kd ([1]; ITC, 25 °C, 20 mM HEPES pH 7.4, 50 mM NaCl, 0.5% DMSO, mean of two measurements ± standard error, read-out: KD): 11 ± 1 µM
O=C(O)Cc1c[nH]c2ccc(O)cc12 [5-Hydroxyindole-3-Acetic Acid]	10 ± 0.3	0.78 ± 0.25	–
O=C(O)c1ccccc1 [Benzoic Acid]	13 ± 1	0.80 ± 0.01	–
Oc1ccccc1O [Catachol (1,2-Dihydroxybenzene), 1,2-Dihydroxybenzene]	13 ± 0.1	0.76 ± 0.01	–
O=C(O)CCCc1c[nH]c2ccccc12 [Indole-3-Butyric Acid]	18 ± 1	0.80 ± 0.01	–
O=C(O)c1c[nH]c2ccccc12 [Indole-3-Carboxylic Acid]	4.6 ± 0.5	0.67 ± 0.03	–
O=C(O)CCc1c[nH]c2ccccc12 [Indole-3-propionic Acid]	17 ± 0.1	0.81 ± 0.05	–
O=C(O)Cc1ccccc1 [Phenylacetic Acid]	10 ± 0.1	0.79 ± 0.02	–
Nc1c(Cl)c(Cl)nc(C(=O)O)c1Cl [Picloram]	16 ± 0.4	0.96 ± 0.01	–
O=C(O)c1ccccc1O [Salicylic Acid]	14 ± 3	0.90 ± 0.01	–
AATTCATGATTGTGGATACATT: 22 bp duplex oligo DNA, sequence between genes 73 and 72 (antisense TTAAGTACTAACACCTATGTAA; chemistry not fully specified; one strand is listed 3' to 5')	–	–	Kd ([2]; ITC in 150 mM NaCl): 0.428 ± 0.002 µM; N ([2]; ITC in 150 mM NaCl): 1.75 ± 0.014; N (MarR monomer binding stoichiometry to duplex DNA) [2, 4]: 2.1 ± 0.3; Kd [2, 5]: 0.52 ± 0.09 µM
AATTCATGATTGTGGATACATTCA: 24 bp MarR_73 DNA binding sequence between genes 73 and 72 (antisense TTAAGTACTAACACCTATGTAAGT; chemistry not fully specified; one strand is listed 3' to 5')	–	–	Kd ([2]; ITC in 150 mM NaCl): 0.151 ± 0.025 µM; N ([2]; ITC in 150 mM NaCl): 2.51 ± 0.26; N (MarR monomer binding stoichiometry to duplex DNA) [2, 4]: 2.5 ± 0.2; Kd [2, 5]: 0.21 ± 0.09 µM
GTAATTCATGATTGTGGATACATTCATTTG: 30 bp duplex oligo DNA, sequence between genes 73 and 72 of the Variovorax IAA degradation locus (antisense CATTAAGTACTAACACCTATGTAAGTAAAC; chemistry not fully specified; one strand is listed 3' to 5')	–	–	N (MarR monomer binding stoichiometry to duplex DNA) [2, 4]: 2.0 ± 0.1; Kd [2, 5]: 0.27 ± 0.02 µM
